Results: patent US20030212061A1, “Aza-thioxanthenones with antitumor activity” (priority 2002, published 2003)
Where two headings read alike, the source gives them in different places.

Key:
HeLa S-3 cells = assay: Inhibition of cell growth (GI50), sulforhodamine B staining; format: cell-based; settings: for Folds Improvements: GI50 of carbocyclic congener versus GI50 of aza-analog
Description: Growth inhibition (GI50) values were measured with HeLa S-3 cells selected for growth on plastic. The procedure was based on the protocol of Skehan et al. (Skehan, P., et al., J. Natl. Cancer Inst., 82:1107-1112 (1990), which is hereby incorporated by reference) HeLa cells were plated at 2×10^4 cells/well in 96 well plates. One day later, a control plate was fixed by addition of TCA to 5%. After five rinses with tap water, the plate was air dried and stored at 4° C. Test compounds were added to the remaining plates at 10-fold dilutions between 0.01 and 100 μM. Two days later, all plates were fixed as described above. Cells were then stained by the addition of 100 μl per well of 0.4% sulforhodamine B (SRB) in 1% acetic acid for 30 min at 4° C. Wells were then quickly rinsed 5×with acetic acid (1%) and allowed to air dry. The SRB was then solubilized by the addition of 100 μl per well of unbuffered 10 mM Tris base. Dye was quantified by measuring absorbance at 490 nm on a Molecular Devices kinetic microplate reader. Growth at each inhibitor concentration relative to the untreated control was calculated according to the following equation: percent growth=100×(T−To)/(C−To), where T was the average optical density (OD) of the test wells after 2 days of treatment, To was the average OD of the wells in the control plate on day 0 and C was the average OD of untreated wells. Plots of percent growth versus inhibitor concentration were used to determine the GI50.
The data below shown in Table 4 summarizes the in vitro growth inhibition constants (GI50) of HeLa Cells for the compounds of the current invention.
GI50 is the concentration of the compound that causes a 50 percent inhibition of tumor cell growth

[1] = test system: murine leukemia (L1210) and P388 leukemia cells; settings: in vitro L1210 and in vivo P388; cited from earlier work
[2] = Homo sapiens, HeLa S3, 48 h, HeLa cells, 2 days of treatment, Table 4, read-out: GI50 Activity
[3] = Homo sapiens, HeLa S3, HeLa cells, Table 5, carbocyclic congener, read-out: GI50 (Carbocic Congener)
[4] = Homo sapiens, HeLa S3, HeLa cells, Table 5, aza-analog, read-out: GI50 (Aza-Analog)

SMILES | GI50 (HeLa S-3 cells; [2]) | also measured
CCN(CC)CCn1nc2c3c(c(CN)ccc31)Sc1ccncc1-2 | 200 nM | –
CCN(CC)CCn1nc2c3c(cccc31)Sc1ccccc1-2 | 9000 nM | –
CCN(CC)CCn1nc2c3c(cccc31)Sc1ccncc1-2 | 1000 nM | –
CCN(CC)CCNc1cccc2sc3ccncc3c(=O)c12 [drawing 81] | 3000 nM | –
CCN(CC)CCn1nc2c3c(c(C=O)ccc31)Sc1ccccc1-2 | 2000 nM | –
CCN(CC)CCNc1ccc(CN)c2sc3ccncc3c(=O)c12 [drawing 83] | 700 nM | –
CCN(CC)CCn1nc2c3c(c(CNS(C)(=O)=O)ccc31)Sc1ccccc1-2 | 900 nM | –
CCN(CC)CCNc1ccc(CN)c2sc3ccccc3c(=O)c12 [drawing 101, reference compound] | – | GI50 (HeLa S-3 cells; [3]): 600 nM
CCN(CC)CCn1nc2c3c(c(CNC=O)ccc31)Sc1ccncc1-2 | 200 nM | –
CCN(CC)CCNc1ccc(CN)c2sc3ccncc3c(=O)c12 [drawing 102] | – | Folds Improvements (HeLa S-3 cells; HeLa cells): 1; GI50 (HeLa S-3 cells; [4]): 700 nM
CCN(CC)CCNc1ccc(CNC(=O)OC)c2sc3ccccc3c(=O)c12 [drawing 79] | 3000 nM | –
CCN(CC)CCNc1ccc(CNS(C)(=O)=O)c2sc3ccncc3c(=O)c12 [drawing 84] | 400 nM | –
CCN(CC)CCNc1ccc(CNS(C)(=O)=O)c2sc3ccccc3c(=O)c12 [drawing 78] | 3000 nM | –
CCN(CC)CCN(N)c1ccc2c(=O)c3cnccc3sc2c1 | > 10000 nM | –
CCN(CC)CCNc1cccc2sc3ccccc3c(=O)c12 [drawing 74] | > 10000 nM | –
CCN(CC)CCNc1ccc(CNC(=O)OC)c2sc3ccccc3c(=O)c12 [drawing 105, reference compound] | – | GI50 (HeLa S-3 cells; [3]): 3000 nM
CCN(CC)CCNc1ccc(CNC=O)c2sc3ccccc3c(=O)c12 [drawing 76] | 3000 nM | –

SMILES | GI50 (HeLa S-3 cells; [2]) | also measured
CCN(CC)CCNc1ccc(CNC=O)c2sc3ccncc3c(=O)c12 [drawing 82] | 1000 nM | –
CCN(CC)CCn1nc2c3c(c(CNC=O)ccc31)Sc1ccccc1-2 | 1000 nM | –
CCN(CC)CCNc1ccc(CNS(C)(=O)=O)c2sc3ccccc3c(=O)c12 [drawing 103, reference compound] | – | GI50 (HeLa S-3 cells; [3]): 3000 nM
CCN(CC)CCn1nc2c3c(c(CN)ccc31)Sc1ccccc1-2 | 1000 nM | –
CCN(CC)CCn1nc2c3c(c(CNC(=O)OC)ccc31)Sc1ccncc1-2 | 100 nM | –
CCN(CC)CCNc1cccc2sc3ccccc3c(=O)c12 [drawing 97, reference compound] | – | GI50 (HeLa S-3 cells; [3]): > 10000 nM
CCN(CC)CCNc1ccc(CN)c2sc3ccccc3c(=O)c12 [drawing 77] | 600 nM | –
CCN(CC)CCNc1ccc(CNC(=O)OC)c2sc3ccncc3c(=O)c12 | 300 nM | –
CCN(CC)CCn1nc2c3c(c(CNC(=O)OC)ccc31)Sc1ccccc1-2 | 3000 nM | –
CCN(CC)CCNc1ccc(CNS(C)(=O)=O)c2sc3ccncc3c(=O)c12 [drawing 106] | – | Folds Improvements (HeLa S-3 cells; HeLa cells): 10; GI50 (HeLa S-3 cells; HeLa cells, Table 5, aza-analog, read-out: GI50 (Aza-Analog)): 300 nM
CCN(CC)CCNc1ccc(CNC=O)c2sc3ccccc3c(=O)c12 [drawing 99, reference compound] | – | GI50 (HeLa S-3 cells; [3]): 3000 nM
CCN(CC)CCNc1ccc(CNS(C)(=O)=O)c2sc3ccncc3c(=O)c12 [drawing 104] | – | Folds Improvements (HeLa S-3 cells; HeLa cells): 7.5; GI50 (HeLa S-3 cells; [4]): 400 nM
CCN(CC)CCN(C)c1ccc2c(=O)c3cnccc3sc2c1 | > 10000 nM | –
CCN(CC)CCNc1ccc(CNC=O)c2sc3ccncc3c(=O)c12 [drawing 100] | – | Folds Improvements (HeLa S-3 cells; HeLa cells): 3; GI50 (HeLa S-3 cells; [4]): 1000 nM
CCN(CC)CCNc1cccc2sc3ccncc3c(=O)c12 [drawing 98] | – | Folds Improvements (HeLa S-3 cells; HeLa cells): 3.5; GI50 (HeLa S-3 cells; [4]): 3000 nM
CN(C)CCNC(=O)c1cccc2c(=O)c3ccccc3sc12.Cl [N-[2-(dimethylamino)ethyl-]-9-oxo-9H-thioxanthene-4-carboxamide monohydrochloride] | – | assessment as a potential antitumor agent [1]: unlikely to worth pursuing
CCN(CC)CCNc1ccc(C=O)c2sc3ccccc3c(=O)c12 | 2000 nM | –
